We go through eight compounds from PubChem BioAssay (NCI).

Among the test systems are SF-295 CNS; UACC-257 melanoma; RPMI-8226 leukemia; SNB-75 CNS; HOP-62 NSCLC; A498 renal; COLO 205 colon; ACHN renal; BT-549 breast; OVCAR-3 ovarian.
Assay in all cases: DTP human tumour cell line panel, 48 h

The GI50 is the concentration giving 50% growth inhibition. The term TGI denotes the concentration at which net growth stops. Low readings indicate more potent growth arrest, high ones less potent growth arrest.

The structures appear in SMILES notation.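 These data come from cells grown in 96-well plates and exposed to compound for 48 hours at five concentrations. GI50 is the concentration that inhibits growth by half. TGI is the concentration that stops growth completely.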

With `COC(=O)[C@]12CC[C@@H](C)[C@H](C)[C@@H]1C1=CC[C@@H]3[C@@]4(C)C(C=O)=C[C@@](C)(COC(=O)c5ccco5)C4=CC[C@@]3(C)[C@]1(C)CC2`, the GI50 was 2390 nM in the assay on SF-295 CNS; 108 nM in the assay on UACC-257 melanoma; 1490 nM with RPMI-8226 leukemia; 2470 nM in the assay on SNB-75 CNS; 3.4 µM with HOP-62 NSCLC; 2810 nM in the assay on A498 renal. Besides, the GI50 with COLO 205 colon was 24.7 nM; with ACHN renal, 118 nM; in the assay on BT-549 breast, 4.93 µM; in the assay with OVCAR-3 ovarian it was 2170 nM. For the same compound, the TGI in the assay on SF-295 CNS turned out to be 8.83 µM; with UACC-257 melanoma, 0.65 µM; with RPMI-8226 leukemia, 5.01 µM; in the assay with SNB-75 CNS, 25.5 µM; in the assay with HOP-62 NSCLC, 13.6 µM; in the assay with A498 renal it was 16.9 µM. Besides, the TGI in the assay with COLO 205 colon stood at 0.0614 µM; in the assay with ACHN renal, 2.56 µM; in the assay with BT-549 breast, 32.4 µM; in the assay on OVCAR-3 ovarian it was 4.76 µM.

As for `COC(=O)C(Br)(C(=O)OC)C(Br)C(Br)C(Br)c1ccccc1` (stereo not given), the GI50 with SF-295 CNS is 17000 nM; in the assay with UACC-257 melanoma, 1880 nM; in the assay on RPMI-8226 leukemia it was 2970 nM; in the assay with SNB-75 CNS, 2070 nM; with HOP-62 NSCLC, 6.31 µM; in the assay on A498 renal it was 15500 nM. In addition, the GI50 is 1870 nM with COLO 205 colon, 2200 nM in the assay with ACHN renal, 12.4 µM in the assay on BT-549 breast and 1720 nM in the assay on OVCAR-3 ovarian. Besides, the TGI in the assay with SF-295 CNS was 33.3 µM; in the assay with UACC-257 melanoma it was 4.4 µM; in the assay on RPMI-8226 leukemia, 9.34 µM; in the assay on SNB-75 CNS, 7.08 µM; in the assay with HOP-62 NSCLC, 15.7 µM; in the assay on A498 renal, 29.4 µM. Moreover, the TGI in the assay with COLO 205 colon turned out to be 3.56 µM; in the assay on ACHN renal, 5.15 µM; in the assay on BT-549 breast, 25.3 µM; with OVCAR-3 ovarian it was 3.11 µM.

For the compound `CCN1Cc2c(/C=C/c3ccccc3)nc3ccc(OC)cc3c2N(c2cccc(Cl)c2)C1`, the GI50 in the assay on SF-295 CNS is 1690 nM; in the assay with UACC-257 melanoma, 1750 nM; with RPMI-8226 leukemia, 1650 nM; in the assay on SNB-75 CNS it was 1800 nM; in the assay on HOP-62 NSCLC it was 1.64 µM; with A498 renal, 1500 nM. The GI50 in the assay with COLO 205 colon was 1590 nM; in the assay on ACHN renal, 1610 nM; in the assay with BT-549 breast, 5.73 µM; with OVCAR-3 ovarian, 1620 nM. Besides, the TGI in the assay with SF-295 CNS is 3.6 µM; in the assay with UACC-257 melanoma, 4.22 µM; in the assay with RPMI-8226 leukemia, 4.71 µM; in the assay with SNB-75 CNS it was 6.1 µM; in the assay on HOP-62 NSCLC, 3.09 µM; in the assay on A498 renal, 3.86 µM. Also, the TGI in the assay on COLO 205 colon was 3 µM; in the assay with ACHN renal, 3.08 µM; in the assay on BT-549 breast, 23 µM; in the assay on OVCAR-3 ovarian it was 3.08 µM.

As to `CCCCc1n(Cc2ccc3ccccc3n2)cc[n+]1Cc1ccc2ccccc2c1`, the GI50 in the assay on SF-295 CNS is 1370 nM; with UACC-257 melanoma, 438 nM; in the assay with RPMI-8226 leukemia, 265 nM; with SNB-75 CNS, 289 nM; with HOP-62 NSCLC, 1.72 µM; with A498 renal, 1180 nM. Also, the GI50 in the assay with COLO 205 colon was 502 nM; in the assay with ACHN renal, 2890 nM; in the assay with BT-549 breast, 0.648 µM; in the assay on OVCAR-3 ovarian it was 541 nM. Besides, the TGI with SF-295 CNS was found to be 4.4 µM; in the assay on UACC-257 melanoma, 1.62 µM; with RPMI-8226 leukemia it was 1.36 µM; in the assay on SNB-75 CNS it was 1.74 µM; in the assay on HOP-62 NSCLC it was 5.25 µM; with A498 renal, 4.45 µM. Moreover, the TGI with COLO 205 colon was determined as 1.79 µM; in the assay with ACHN renal it was 8.8 µM; in the assay with BT-549 breast, 1.74 µM; with OVCAR-3 ovarian, 2.03 µM.

With `COc1ccccc1CNC(=O)/C=C/c1ccc(O)c(O)c1`, the GI50 in the assay with SF-295 CNS was above 100000 nM; in the assay on UACC-257 melanoma, 84600 nM; with RPMI-8226 leukemia, 34700 nM; in the assay with SNB-75 CNS, 86500 nM; in the assay on HOP-62 NSCLC, 61.9 µM; in the assay with A498 renal, above 100000 nM. For the same compound, the GI50 in the assay on COLO 205 colon is 24400 nM; in the assay with ACHN renal, 24500 nM; in the assay on BT-549 breast it was 40.2 µM; with OVCAR-3 ovarian it was 67300 nM. For the same compound, the TGI with SF-295 CNS, with UACC-257 melanoma, in the assay with RPMI-8226 leukemia, in the assay with SNB-75 CNS, with HOP-62 NSCLC and in the assay with A498 renal was above 100 µM each time. The TGI in the assay with COLO 205 colon, with ACHN renal, with BT-549 breast and in the assay on OVCAR-3 ovarian was above 100 µM throughout.

With `Cn1c(=S)c2[nH]c(SCc3cccnc3)nc2n(C)c1=O`, the TGI in the assay with SF-295 CNS, with UACC-257 melanoma, in the assay on RPMI-8226 leukemia, with SNB-75 CNS, in the assay with HOP-62 NSCLC and with A498 renal was above 100 µM each time. Further, the TGI with COLO 205 colon, with ACHN renal, with BT-549 breast and in the assay with OVCAR-3 ovarian was above 100 µM each time.

Regarding `COc1cc2c3c(n(CCCN=[N+]=[N-])c(=O)c2cc1OC)-c1ccc(NC(C)=O)cc1C3=O`, the GI50 with SF-295 CNS is 8960 nM; in the assay with UACC-257 melanoma it was above 50000 nM; with RPMI-8226 leukemia, above 50000 nM; with SNB-75 CNS, 25800 nM; in the assay with HOP-62 NSCLC, above 50 µM; in the assay on A498 renal, above 50000 nM. For the same compound, the GI50 in the assay with COLO 205 colon is above 50000 nM; in the assay with ACHN renal, above 50000 nM; with BT-549 breast, above 50 µM; with OVCAR-3 ovarian, above 50000 nM. Also, the TGI in the assay on SF-295 CNS, in the assay on UACC-257 melanoma, with RPMI-8226 leukemia, in the assay on SNB-75 CNS, in the assay with HOP-62 NSCLC and with A498 renal was above 50 µM in each case. For the same compound, the TGI with COLO 205 colon, in the assay on ACHN renal, in the assay with BT-549 breast and in the assay with OVCAR-3 ovarian was above 50 µM each time.

Regarding `COC(=O)C1OC(SCCN)C(O)C(O)C1O` (stereo not given), the TGI in the assay on SF-295 CNS, with UACC-257 melanoma, in the assay with RPMI-8226 leukemia, with SNB-75 CNS, with HOP-62 NSCLC and in the assay with A498 renal was above 100 µM throughout. The TGI in the assay with COLO 205 colon, in the assay on ACHN renal, in the assay on BT-549 breast and in the assay with OVCAR-3 ovarian was above 100 µM in each case.
